Test results taken from the kinase profiling compilation of Christmann-Franck et al. (2016).

Legend:
Assay in all cases: KINOMEscan competition binding
Settings in all cases: compound 10.0 µM
[1] = tested on: ABL1 (human), P00519 [Y253F]
AURKB (human) = AURKB (human) (UniProt Q96GD4)
BMPR2 (human) = BMPR2 (human) (UniProt Q13873)
CAMK1D (human) = CAMK1D (human) (UniProt Q8IU85)
CAMK1G (human) = CAMK1G (human) (UniProt Q96NX5)
CAMK2A (human) = CAMK2A (human) (UniProt Q9UQM7)
CDKL1 (human) = CDKL1 (human) (UniProt Q00532)
CHEK1 (human) = CHEK1 (human) (UniProt O14757)
CHUK (human) = CHUK (human) (UniProt O15111)
CSK (human) = CSK (human) (UniProt P41240)
DAPK2 (human) = DAPK2 (human) (UniProt Q9UIK4)
DCLK1 (human) = DCLK1 (human) (UniProt O15075)
FES (human) = FES (human) (UniProt P07332)
FGFR3 (human) = FGFR3 (human) (UniProt P22607)
[2] = tested on: FLT3 (human), P36888 [D835H]
FRK (human) = FRK (human) (UniProt P42685)
GAK (human) = GAK (human) (UniProt O14976)
GRK4 (human) = GRK4 (human) (UniProt P32298)
GSK3A (human) = GSK3A (human) (UniProt P49840)
HIPK3 (human) = HIPK3 (human) (UniProt Q9H422)
HUNK (human) = HUNK (human) (UniProt P57058)
INSR (human) = INSR (human) (UniProt P06213)
IRAK1 (human) = IRAK1 (human) (UniProt P51617)
KIT (human) = KIT (human) (UniProt P10721)
LCK (human) = LCK (human) (UniProt P06239)
LIMK2 (human) = LIMK2 (human) (UniProt P53671)
MAP2K1 (human) = MAP2K1 (human) (UniProt Q02750)
MAP3K13 (human) = MAP3K13 (human) (UniProt O43283)
MAPK14 (human) = MAPK14 (human) (UniProt Q16539)
MUSK (human) = MUSK (human) (UniProt O15146)
NEK11 (human) = NEK11 (human) (UniProt Q8NG66)
PDPK1 (human) = PDPK1 (human) (UniProt O15530)
PKN2 (human) = PKN2 (human) (UniProt Q16513)
PRKACB (human) = PRKACB (human) (UniProt P22694)
PRKD1 (human) = PRKD1 (human) (UniProt Q15139)
RPS6KA1 KD2 (human) = RPS6KA1 KD2 (human) (UniProt Q15418)
SGK3 (human) = SGK3 (human) (UniProt Q96BR1)
STK32C (human) = STK32C (human) (UniProt Q86UX6)
STK4 (human) = STK4 (human) (UniProt Q13043)
ULK1 (human) = ULK1 (human) (UniProt O75385)
ULK3 (human) = ULK3 (human) (UniProt Q6PHR2)
Sequence of ULK3 (human) (Q6PHR2 whole entry, looked up): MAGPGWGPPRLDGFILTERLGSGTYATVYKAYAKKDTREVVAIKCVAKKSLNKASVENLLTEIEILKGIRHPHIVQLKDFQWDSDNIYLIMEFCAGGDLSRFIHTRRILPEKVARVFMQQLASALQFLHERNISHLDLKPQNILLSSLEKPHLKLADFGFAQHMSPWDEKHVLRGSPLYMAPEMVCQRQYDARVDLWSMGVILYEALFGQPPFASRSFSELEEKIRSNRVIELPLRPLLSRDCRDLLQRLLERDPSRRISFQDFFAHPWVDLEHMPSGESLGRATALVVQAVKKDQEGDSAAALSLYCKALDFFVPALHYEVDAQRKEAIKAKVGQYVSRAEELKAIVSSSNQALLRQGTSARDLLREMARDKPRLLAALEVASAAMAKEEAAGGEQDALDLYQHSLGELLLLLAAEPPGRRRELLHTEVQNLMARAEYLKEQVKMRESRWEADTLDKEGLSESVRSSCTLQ

Sequence of GRK4 (human) (P32298 whole entry, looked up): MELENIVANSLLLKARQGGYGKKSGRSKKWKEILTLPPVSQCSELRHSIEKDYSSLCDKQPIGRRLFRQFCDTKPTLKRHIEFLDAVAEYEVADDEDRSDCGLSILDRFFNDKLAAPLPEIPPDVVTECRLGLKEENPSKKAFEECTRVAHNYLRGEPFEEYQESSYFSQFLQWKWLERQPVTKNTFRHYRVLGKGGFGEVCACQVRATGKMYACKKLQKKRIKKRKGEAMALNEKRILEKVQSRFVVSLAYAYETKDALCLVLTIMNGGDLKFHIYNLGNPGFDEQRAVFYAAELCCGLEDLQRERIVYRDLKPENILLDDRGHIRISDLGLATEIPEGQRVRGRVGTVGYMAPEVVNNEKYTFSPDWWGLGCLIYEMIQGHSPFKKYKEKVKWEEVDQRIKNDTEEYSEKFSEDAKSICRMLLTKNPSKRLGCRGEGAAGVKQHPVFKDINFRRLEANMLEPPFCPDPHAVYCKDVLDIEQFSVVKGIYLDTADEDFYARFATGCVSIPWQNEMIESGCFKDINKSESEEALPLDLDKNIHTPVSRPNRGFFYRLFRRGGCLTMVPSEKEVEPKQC
Sequence of GSK3A (human) (P49840 whole entry, looked up): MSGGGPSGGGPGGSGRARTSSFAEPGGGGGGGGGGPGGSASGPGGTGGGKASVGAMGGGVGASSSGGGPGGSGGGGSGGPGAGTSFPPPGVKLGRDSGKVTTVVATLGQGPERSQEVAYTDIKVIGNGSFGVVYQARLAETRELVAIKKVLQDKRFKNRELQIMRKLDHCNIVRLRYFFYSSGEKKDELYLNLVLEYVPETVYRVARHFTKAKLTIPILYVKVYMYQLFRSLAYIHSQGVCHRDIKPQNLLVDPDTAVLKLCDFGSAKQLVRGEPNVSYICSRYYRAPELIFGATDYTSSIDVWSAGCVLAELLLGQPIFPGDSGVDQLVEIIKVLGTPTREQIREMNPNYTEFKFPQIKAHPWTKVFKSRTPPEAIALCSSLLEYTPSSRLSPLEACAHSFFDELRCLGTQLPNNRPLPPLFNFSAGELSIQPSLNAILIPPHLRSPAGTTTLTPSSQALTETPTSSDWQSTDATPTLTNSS
Sequence of HIPK3 (human) (Q9H422 whole entry, looked up): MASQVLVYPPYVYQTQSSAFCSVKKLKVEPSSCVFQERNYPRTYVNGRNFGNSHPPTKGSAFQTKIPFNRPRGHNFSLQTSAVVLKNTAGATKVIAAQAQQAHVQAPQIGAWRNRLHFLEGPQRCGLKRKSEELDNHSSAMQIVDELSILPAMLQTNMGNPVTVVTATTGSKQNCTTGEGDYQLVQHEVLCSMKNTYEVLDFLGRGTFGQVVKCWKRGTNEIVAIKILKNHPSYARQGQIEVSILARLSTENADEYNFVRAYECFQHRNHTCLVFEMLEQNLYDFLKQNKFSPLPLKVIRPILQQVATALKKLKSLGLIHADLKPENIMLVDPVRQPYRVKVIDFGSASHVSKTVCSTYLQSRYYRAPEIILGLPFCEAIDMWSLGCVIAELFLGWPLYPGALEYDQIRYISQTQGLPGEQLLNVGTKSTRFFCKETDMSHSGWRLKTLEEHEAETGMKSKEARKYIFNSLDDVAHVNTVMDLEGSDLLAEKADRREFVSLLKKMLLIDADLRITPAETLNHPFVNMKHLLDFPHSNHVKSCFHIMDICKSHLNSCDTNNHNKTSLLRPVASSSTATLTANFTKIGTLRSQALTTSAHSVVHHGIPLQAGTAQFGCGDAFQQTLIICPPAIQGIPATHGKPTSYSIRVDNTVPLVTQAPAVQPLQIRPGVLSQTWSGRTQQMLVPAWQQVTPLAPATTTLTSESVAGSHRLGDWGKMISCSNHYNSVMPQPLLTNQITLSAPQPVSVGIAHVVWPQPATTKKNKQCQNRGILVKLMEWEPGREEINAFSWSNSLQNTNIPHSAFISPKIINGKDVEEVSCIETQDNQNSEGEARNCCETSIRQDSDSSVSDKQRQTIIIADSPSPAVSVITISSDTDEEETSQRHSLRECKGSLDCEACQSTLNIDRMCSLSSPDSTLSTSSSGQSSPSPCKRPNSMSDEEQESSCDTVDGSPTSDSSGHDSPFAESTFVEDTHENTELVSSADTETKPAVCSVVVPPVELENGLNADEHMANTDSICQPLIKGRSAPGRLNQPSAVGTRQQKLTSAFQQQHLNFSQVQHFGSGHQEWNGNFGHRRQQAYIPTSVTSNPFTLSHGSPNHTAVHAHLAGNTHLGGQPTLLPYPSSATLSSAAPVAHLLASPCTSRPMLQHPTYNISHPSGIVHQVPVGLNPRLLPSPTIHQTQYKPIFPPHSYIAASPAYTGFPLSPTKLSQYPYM
Sequence of MAPK14 (human) (Q16539 whole entry, looked up): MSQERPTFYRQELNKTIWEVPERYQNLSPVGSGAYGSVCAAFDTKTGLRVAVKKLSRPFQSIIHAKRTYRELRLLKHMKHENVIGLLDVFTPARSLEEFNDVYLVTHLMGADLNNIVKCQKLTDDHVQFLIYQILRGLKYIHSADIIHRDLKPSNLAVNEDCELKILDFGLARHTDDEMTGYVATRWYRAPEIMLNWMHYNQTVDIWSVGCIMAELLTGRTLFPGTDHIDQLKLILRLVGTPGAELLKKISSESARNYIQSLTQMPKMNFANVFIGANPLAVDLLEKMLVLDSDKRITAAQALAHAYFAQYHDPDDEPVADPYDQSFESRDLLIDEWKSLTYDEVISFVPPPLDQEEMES
Sequence of DAPK2 (human) (Q9UIK4 whole entry, looked up): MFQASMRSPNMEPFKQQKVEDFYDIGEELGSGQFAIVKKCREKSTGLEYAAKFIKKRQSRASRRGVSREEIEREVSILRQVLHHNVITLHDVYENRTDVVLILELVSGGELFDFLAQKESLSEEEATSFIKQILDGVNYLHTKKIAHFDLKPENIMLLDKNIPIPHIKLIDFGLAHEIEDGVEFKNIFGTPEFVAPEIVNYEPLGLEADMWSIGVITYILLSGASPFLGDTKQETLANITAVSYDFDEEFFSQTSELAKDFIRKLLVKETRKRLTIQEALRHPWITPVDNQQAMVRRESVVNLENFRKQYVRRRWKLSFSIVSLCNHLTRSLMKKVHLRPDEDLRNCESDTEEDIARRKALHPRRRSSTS
Sequence of FGFR3 (human) (P22607 whole entry, looked up): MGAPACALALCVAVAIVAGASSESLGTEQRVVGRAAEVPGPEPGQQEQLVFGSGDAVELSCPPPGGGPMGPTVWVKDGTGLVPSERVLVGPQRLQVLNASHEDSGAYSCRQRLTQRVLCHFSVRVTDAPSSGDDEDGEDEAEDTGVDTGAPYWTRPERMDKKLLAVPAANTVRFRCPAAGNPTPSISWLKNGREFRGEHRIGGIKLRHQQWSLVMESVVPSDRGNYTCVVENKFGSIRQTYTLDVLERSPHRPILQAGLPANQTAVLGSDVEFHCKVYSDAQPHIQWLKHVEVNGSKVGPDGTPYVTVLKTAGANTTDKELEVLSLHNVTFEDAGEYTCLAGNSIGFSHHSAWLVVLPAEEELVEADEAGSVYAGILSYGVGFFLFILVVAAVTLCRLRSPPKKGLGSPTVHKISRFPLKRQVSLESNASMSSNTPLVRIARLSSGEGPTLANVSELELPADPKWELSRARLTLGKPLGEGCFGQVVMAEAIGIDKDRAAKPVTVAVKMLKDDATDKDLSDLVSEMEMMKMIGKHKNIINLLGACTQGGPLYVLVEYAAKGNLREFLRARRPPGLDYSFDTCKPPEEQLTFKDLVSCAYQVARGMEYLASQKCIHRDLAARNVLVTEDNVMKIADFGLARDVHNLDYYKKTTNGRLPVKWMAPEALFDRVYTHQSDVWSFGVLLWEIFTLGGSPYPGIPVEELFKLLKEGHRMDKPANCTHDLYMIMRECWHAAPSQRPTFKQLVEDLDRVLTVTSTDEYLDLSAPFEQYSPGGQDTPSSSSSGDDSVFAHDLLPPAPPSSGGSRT
Sequence of CDKL1 (human) (Q00532 whole entry, looked up): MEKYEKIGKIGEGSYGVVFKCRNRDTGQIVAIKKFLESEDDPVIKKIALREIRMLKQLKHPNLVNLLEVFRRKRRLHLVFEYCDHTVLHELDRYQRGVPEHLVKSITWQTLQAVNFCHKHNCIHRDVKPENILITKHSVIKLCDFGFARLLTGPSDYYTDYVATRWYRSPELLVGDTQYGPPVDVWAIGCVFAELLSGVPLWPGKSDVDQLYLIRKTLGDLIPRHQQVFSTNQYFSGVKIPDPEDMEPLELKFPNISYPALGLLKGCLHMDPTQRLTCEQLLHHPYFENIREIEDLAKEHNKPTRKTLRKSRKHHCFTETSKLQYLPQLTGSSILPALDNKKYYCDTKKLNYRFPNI
Sequence of CAMK1D (human) (Q8IU85 whole entry, looked up): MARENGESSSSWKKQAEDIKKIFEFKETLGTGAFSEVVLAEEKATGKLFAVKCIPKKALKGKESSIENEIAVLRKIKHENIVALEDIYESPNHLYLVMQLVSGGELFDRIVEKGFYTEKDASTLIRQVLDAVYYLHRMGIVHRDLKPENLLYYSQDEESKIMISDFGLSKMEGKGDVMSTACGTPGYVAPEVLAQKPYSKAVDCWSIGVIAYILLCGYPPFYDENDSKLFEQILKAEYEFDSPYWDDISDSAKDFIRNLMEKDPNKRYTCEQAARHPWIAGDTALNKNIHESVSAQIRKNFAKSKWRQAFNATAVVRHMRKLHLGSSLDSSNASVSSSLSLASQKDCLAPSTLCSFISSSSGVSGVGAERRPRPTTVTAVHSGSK

## O=c1cc(N2CCOCC2)oc2c(-c3cccc4c3sc3ccccc34)cccc12
[1]
  kinase still bound, per cent of control: 100%
AURKB (human)
  kinase still bound, per cent of control: 100%
BMPR2 (human)
  kinase still bound, per cent of control: 83%
CAMK1D (human)
  kinase still bound, per cent of control: 68%
CAMK1G (human)
  kinase still bound, per cent of control: 85%
CAMK2A (human)
  kinase still bound, per cent of control: 78%
CDKL1 (human)
  kinase still bound, per cent of control: 87%
CHEK1 (human)
  kinase still bound, per cent of control: 100%
CHUK (human)
  kinase still bound, per cent of control: 100%
CSK (human)
  kinase still bound, per cent of control: 100%
DAPK2 (human)
  kinase still bound, per cent of control: 90%
DCLK1 (human)
  kinase still bound, per cent of control: 84%
FES (human)
  kinase still bound, per cent of control: 93%
FGFR3 (human)
  kinase still bound, per cent of control: 80%
[2]
  kinase still bound, per cent of control: 92%
FRK (human)
  kinase still bound, per cent of control: 91%
GAK (human)
  kinase still bound, per cent of control: 89%
GRK4 (human)
  kinase still bound, per cent of control: 100%
GSK3A (human)
  kinase still bound, per cent of control: 78%
HIPK3 (human)
  kinase still bound, per cent of control: 92%
HUNK (human)
  kinase still bound, per cent of control: 75%
INSR (human)
  kinase still bound, per cent of control: 66%
IRAK1 (human)
  kinase still bound, per cent of control: 96%
KIT (human)
  kinase still bound, per cent of control: 80%
LCK (human)
  kinase still bound, per cent of control: 90%
LIMK2 (human)
  kinase still bound, per cent of control: 100%
MAP2K1 (human)
  kinase still bound, per cent of control: 76%
MAP3K13 (human)
  kinase still bound, per cent of control: 100%
MAPK14 (human)
  kinase still bound, per cent of control: 98%
MUSK (human)
  kinase still bound, per cent of control: 100%
NEK11 (human)
  kinase still bound, per cent of control: 100%
PDPK1 (human)
  kinase still bound, per cent of control: 95%
PKN2 (human)
  kinase still bound, per cent of control: 86%
PRKACB (human)
  kinase still bound, per cent of control: 92%
PRKD1 (human)
  kinase still bound, per cent of control: 98%
RPS6KA1 KD2 (human)
  kinase still bound, per cent of control: 75%
SGK3 (human)
  kinase still bound, per cent of control: 100%
STK32C (human)
  kinase still bound, per cent of control: 54%
STK4 (human)
  kinase still bound, per cent of control: 98%
ULK1 (human)
  kinase still bound, per cent of control: 41%
ULK3 (human)
  kinase still bound, per cent of control: 64%

## COc1cc(C(=O)N2CCC(N3CCN(C)CC3)CC2)ccc1Nc1ncc2c(n1)N(C)c1ccccc1C(=O)N2C
[1]
  kinase still bound, per cent of control: 89%
AURKB (human)
  kinase still bound, per cent of control: 38%
BMPR2 (human)
  kinase still bound, per cent of control: 87%
CAMK1D (human)
  kinase still bound, per cent of control: 69%
CAMK1G (human)
  kinase still bound, per cent of control: 74%
CAMK2A (human)
  kinase still bound, per cent of control: 21%
CDKL1 (human)
  kinase still bound, per cent of control: 78%
CHEK1 (human)
  kinase still bound, per cent of control: 100%
CHUK (human)
  kinase still bound, per cent of control: 100%
CSK (human)
  kinase still bound, per cent of control: 90%
DAPK2 (human)
  kinase still bound, per cent of control: 67%
DCLK1 (human)
  kinase still bound, per cent of control: 4.2%
FES (human)
  kinase still bound, per cent of control: 84%
FGFR3 (human)
  kinase still bound, per cent of control: 80%
[2]
  kinase still bound, per cent of control: 100%
FRK (human)
  kinase still bound, per cent of control: 34%
GAK (human)
  kinase still bound, per cent of control: 16%
GRK4 (human)
  kinase still bound, per cent of control: 86%
GSK3A (human)
  kinase still bound, per cent of control: 100%
HIPK3 (human)
  kinase still bound, per cent of control: 89%
HUNK (human)
  kinase still bound, per cent of control: 100%
INSR (human)
  kinase still bound, per cent of control: 84%
IRAK1 (human)
  kinase still bound, per cent of control: 100%
KIT (human)
  kinase still bound, per cent of control: 100%
LCK (human)
  kinase still bound, per cent of control: 100%
LIMK2 (human)
  kinase still bound, per cent of control: 100%
MAP2K1 (human)
  kinase still bound, per cent of control: 100%
MAP3K13 (human)
  kinase still bound, per cent of control: 100%
MAPK14 (human)
  kinase still bound, per cent of control: 87%
MUSK (human)
  kinase still bound, per cent of control: 99%
NEK11 (human)
  kinase still bound, per cent of control: 100%
PDPK1 (human)
  kinase still bound, per cent of control: 100%
PKN2 (human)
  kinase still bound, per cent of control: 95%
PRKACB (human)
  kinase still bound, per cent of control: 100%
PRKD1 (human)
  kinase still bound, per cent of control: 28%
RPS6KA1 KD2 (human)
  kinase still bound, per cent of control: 10%
SGK3 (human)
  kinase still bound, per cent of control: 95%
STK32C (human)
  kinase still bound, per cent of control: 100%
STK4 (human)
  kinase still bound, per cent of control: 100%
ULK1 (human)
  kinase still bound, per cent of control: 80%
ULK3 (human)
  kinase still bound, per cent of control: 100%

## CN(C)C/C=C/C(=O)Nc1ccc(C(=O)Nc2cccc(Nc3nccc(-c4cccnc4)n3)c2)cc1
[1]
  kinase still bound, per cent of control: 40%
AURKB (human)
  kinase still bound, per cent of control: 22%
BMPR2 (human)
  kinase still bound, per cent of control: 100%
CAMK1D (human)
  kinase still bound, per cent of control: 100%
CAMK1G (human)
  kinase still bound, per cent of control: 64%
CAMK2A (human)
  kinase still bound, per cent of control: 54%
CDKL1 (human)
  kinase still bound, per cent of control: 41%
CHEK1 (human)
  kinase still bound, per cent of control: 100%
CHUK (human)
  kinase still bound, per cent of control: 54%
CSK (human)
  kinase still bound, per cent of control: 97%
DAPK2 (human)
  kinase still bound, per cent of control: 81%
DCLK1 (human)
  kinase still bound, per cent of control: 98%
FES (human)
  kinase still bound, per cent of control: 99%
FGFR3 (human)
  kinase still bound, per cent of control: 96%
[2]
  kinase still bound, per cent of control: 28%
FRK (human)
  kinase still bound, per cent of control: 100%
GAK (human)
  kinase still bound, per cent of control: 3.6%
GRK4 (human)
  kinase still bound, per cent of control: 29%
GSK3A (human)
  kinase still bound, per cent of control: 26%
HIPK3 (human)
  kinase still bound, per cent of control: 4.2%
HUNK (human)
  kinase still bound, per cent of control: 69%
INSR (human)
  kinase still bound, per cent of control: 74%
IRAK1 (human)
  kinase still bound, per cent of control: 0.9%
KIT (human)
  kinase still bound, per cent of control: 3.8%
LCK (human)
  kinase still bound, per cent of control: 100%
LIMK2 (human)
  kinase still bound, per cent of control: 92%
MAP2K1 (human)
  kinase still bound, per cent of control: 92%
MAP3K13 (human)
  kinase still bound, per cent of control: 100%
MAPK14 (human)
  kinase still bound, per cent of control: 99%
MUSK (human)
  kinase still bound, per cent of control: 61%
NEK11 (human)
  kinase still bound, per cent of control: 100%
PDPK1 (human)
  kinase still bound, per cent of control: 100%
PKN2 (human)
  kinase still bound, per cent of control: 79%
PRKACB (human)
  kinase still bound, per cent of control: 100%
PRKD1 (human)
  kinase still bound, per cent of control: 100%
RPS6KA1 KD2 (human)
  kinase still bound, per cent of control: 91%
SGK3 (human)
  kinase still bound, per cent of control: 65%
STK32C (human)
  kinase still bound, per cent of control: 100%
STK4 (human)
  kinase still bound, per cent of control: 100%
ULK1 (human)
  kinase still bound, per cent of control: 97%
ULK3 (human)
  kinase still bound, per cent of control: 88%
